Experimental data published in patent US20240262835A1, “PRMT5 INHIBITING COMPOUNDS AND USES THEREOF” (ANTENGENE DISCOVERY LIMITED, priority 2023, published 2024).
Read-outs that look alike come from different tables or passages of the source.

How the values were obtained:
[1] = tested on: HCT116 parental (wild type) cells; test: HCT116 cell proliferation assay (CTG), parental cells; assay type: cell-based, human; details: Cell Titer-Glo
Procedure: (§1) Control samples were analyzed in parallel.
(§2) On Day 0, 150 HCT116 parental or HCT116 homozygous MTAP knockout cells were seeded in 96-well plates in McCoy's 5A medium containing 10% fetal bovine serum and pen/strep. And the cells were incubated overnight at 37° C. and 5% CO2.
(§3) On Day 1, cells were treated with 9-point serial dilution of compound, using a top concentration of 50 μM, 1:5 serial dilution steps and, a DMSO-only control. And cells were incubated for 6 days.
(§4) On Day 7, cell viability was measured using a CTG assay Kit (Cell Titer-Glo; Promega, catalog no.: G7573) in accordance with the manufacturer's instructions. Assays plates were read on a EnVision™ Multilabel Reader using the Ultra-Sensitive luminescence model. The data were analyzed by GraphPad Prism 5.0 software, and the dose-effect curve was obtained by fitting the data using nonlinear S-curve regression, from which the IC50 value was calculated.

[2] = tested on: human colon cancer cell line HCT116 (MTAP KO); test: In vivo efficacy assay, subcutaneous HCT116 MTAP KO xenograft; design: species or system Balb/C nude female mouse; details: 15 mg/kg PO/QD, 21 days, Balb/C nude mice
Procedure: The antitumor effect or MTAP/MTA selectivity of the compounds provided herein in the subcutaneously transplanted Balb/C nude female mouse model of human colon cancer cell line HCT116 (WT and MTAP KO) was tested.
Cell viability and cell count were determined. Cell count of the suspension was adjusted to 1×10^8 cells/mL and mixed with Matrigel in a 1:1 volume. Each mouse for this study were inoculated subcutaneously in the right front flank region with 5×10^6 tumor cells (0.1 mL) for tumor development.
The randomization started when the mean tumor size reaches approximately 100-150 mm^3. Mice inoculated with HCT116 WT cells were randomized on day 7. Mice inoculated with HCT116 MTAP KO cells were randomized on day 8. All animals were randomly allocated to 5 study groups, each group consisted of 8 animals. Randomization was performed based on randomized block design.
Tumor volume was measured twice per week in two dimensions using a caliper, and the volume was expressed in mm^3 using the formula: “V=(L×W×W)/2”, where V is tumor volume, L is tumor length (the longest tumor dimension) and W is tumor width (the longest tumor dimension perpendicular to L).

[3] = tested on: cryopreserved hepatocytes
Procedure: 1) 10 mM test compounds were provided.
(§5) 2) 30 mM positive control stock solutions: Dissolved accurate amount of positive control compounds in dimethyl sulfoxide (DMSO).
(§6) 3) 1000× Stock Solution: Diluted 10 mM test compounds and 30 mM positive control compounds to 1 mM and 3 mM with DMSO in 96-well plates.
(§7) 4) 100× Dosing Solution: Diluted 1 mM test compounds and 3 mM positive control compounds to 100 μM and 300 μM dosing solutions with ACN.
(§8) 5) Preparation of 0.5×10^6/mL cells suspension: cryopreserved cells were thawed, isolated and suspended in Incubation Medium, then diluted with pre-warmed Incubation Medium to 0.5×10^6 cells/mL.
(§9) 6) Add 198 μL of pre-warmed cell suspensions in 96-well plates.
(§10) 7) Preparation of Quenching Plate: Transfer 125 μL of stop solution in a set of pre-labeled 96-well plates.
(§11) 8) Spike 2 μL dosing solution to each well of 96-well plates in duplicate.
(§12) 9) For TO Samples, mix to achieve a homogenous suspension for about 1 min, then immediately transfer 25 μL of each sample into well containing 125 μL of ice-cold stop solution followed by mixing.
(§13) 10) Incubate all plates at 37° C. in a 95% humidified incubator at 5% CO2 to start the reactions with constant shaking.
(§14) 11) At 15, 30, 60 and 90 min, mix samples and then transfer 25 μL of each sample at each time point to well containing 125 μL of ice-cold stop solution followed by mixing.
(§15) 12) Medium Control (MC) sample plates (labeled as TO-MC and T90-MC) are prepared in the same way as cell incubation except that medium was used instead of cell suspension.
(§16) 13) At each corresponding time point, stop the reactions by removing the plates from incubator and mixing with 125 μL of ice-cold stop solution.
(§17) 14) Vortex the plates immediately on a plate shaker at 600 rpm for 10 minutes. Then, centrifuge all sample plates at 3220×g for 20 min at 4° C.
(§18) 15) After centrifugation, 80 μL/well of supernatant in the sample plates are transferred to another set of pre-labeled 96-well plates which containing 240 μL of ultra pure water according to the plate map.
(§19) 16) Analytical plates are sealed and store at 4° C. until LC-MS/MS analysis.
(§20) The remaining percents of test articles after incubation were calculated by the follow equations:
(§21) Use the following equation of first order kinetics to calculate T1/2 and CLint:

[4] = tested on: cryopreserved hepatocytes; remark: listed apart in the source
Procedure: 1) 10 mM test compounds were provided.
as §5, §6, §7, §8, §9, §10, §11, §12, §13, §14, §15, §16, §17, §18, §19, §20, §21

[5] = tested on: HCT116 homozygous MTAP knockout cells; test: HCT116 cell proliferation assay (CTG), MTAP knockout cells; assay type: cell-based, human; details: Cell Titer-Glo
Procedure: as §1, §2, §3, §4

[6] = tested on: cryopreserved hepatocytes; remark: listed apart in the source
Procedure: 1) 10 mM test compounds were provided.
as §5, §6, §7, §8, §9, §10, §11, §12, §13, §14, §15, §16, §17, §18, §19, §20, §21

[7] = molecular target: hERG potassium ion channel (Homo sapiens (Human), UniProt Q12809); test: hERG potassium ion channel inhibition assay (automated patch-clamp, CHO-hERG cells); assay type: cell-based; details: Qpatch, highest test concentration 40.00 μM
Procedure: Drug-hERG interaction was measured by automated patch-clamp methods, with cisapride as positive control.
1.1 CHO-hERG cells were cultured in 175 cm^2 culture bottle. After the cell density grew to 60-80%, the culture medium was removed, washed with 7 mL of phosphate buffered saline (PBS), and then digested with 3 mL Detachin.
1.2 After the digestion was complete, 7 mL culture solution was added for neutralization, and then centrifuged, the clear solution was sucked, and 5 mL culture solution was added for re-suspension to ensure the cell density was 2˜5×10^6/mL.
The process of single-cell high-impedance sealing and whole-cell pattern formation was all automatically completed by Qpatch instrument. After obtaining whole-cell recording mode, the cell was pinching at −80 millivolts. Before giving a 5-second +40 millivolt depolarization stimulus, a 50-millisecond pre-voltage of −50 millivolts was given first, and then repolarized to −50 millivolts for 5 seconds. Go back to −80 millivolts. This voltage stimulation was applied every 15 seconds, recorded for 2 minutes, then extracellular fluid was given and recorded for 5 minutes, and then the administration process began. The concentration of test compound was given from the lowest test concentration for 2.5 minutes per test concentration. After continuous administration of all concentrations, the positive control 3 μM cisapride was given. At least 2 cells were tested for each concentration (n≥2).
4.1 The compound mother liquor was diluted with DMSO, and 10 μL compound stock solution was added to 20 μL DMSO solution, which was continuously 3-fold diluted to 6 DMSO-concentrations.
4.2 4 μL of test compounds in 6 DMSO-concentrations were added to 396 μL extracellular solution and were 100-fold diluted to 6 intermediate concentrations. Then, 80 μL of test compounds in 6 intermediate concentrations were added to 320 μL extracellular solution and were 5-fold diluted to the final concentration to be tested.
4.3 The highest test concentration was 40.00 μM, and six test concentrations were 40.00, 13.33, 4.44, 1.48, 0.49, 0.16 μM, respectively.
4.5 Entire dilution process for test compound preparation was performed by Bravo instrument.
The experimental data were analyzed by GraphPad Prism 5.0 software.

[8] = tested on: cryopreserved hepatocytes; test: Hepatic metabolic stability (HMS) assay, cynomolgus monkey hepatocytes; details: for T1/2 (hepatocytes) C / CLint (liver) C: cynomolgus monkey hepatocytes; for T1/2 (hepatocytes) C: 1 μM test compound (3 μM positive control); for CLint (liver) C: scaled to liver; for CLint (hep) C: cynomolgus monkey, hepatocytes
Procedure: 1) 10 mM test compounds were provided.
as §5, §6, §7, §8, §9, §10, §11, §12, §13, §14, §15, §16, §17, §18, §19, §20, §21

[9] = tested on: cryopreserved hepatocytes; test: Hepatic metabolic stability (HMS) assay, rat hepatocytes; details: for T1/2 (hepatocytes) R / CLint (liver) R: rat hepatocytes; for T1/2 (hepatocytes) R: 1 μM test compound (3 μM positive control); for CLint (liver) R: scaled to liver; for CLint (hep) R: rat, hepatocytes
Procedure: 1) 10 mM test compounds were provided.
as §5, §6, §7, §8, §9, §10, §11, §12, §13, §14, §15, §16, §17, §18, §19, §20, §21

[10] = tested on: cryopreserved hepatocytes; test: Hepatic metabolic stability (HMS) assay, human hepatocytes; details: for T1/2 (hepatocytes) H / CLint (liver) H: human hepatocytes; for T1/2 (hepatocytes) H: 1 μM test compound (3 μM positive control); for CLint (liver) H: scaled to liver; for CLint (hep) H: human, hepatocytes
Procedure: 1) 10 mM test compounds were provided.
as §5, §6, §7, §8, §9, §10, §11, §12, §13, §14, §15, §16, §17, §18, §19, §20, §21

[11] = Liver microsome metabolic stability (LMS) assay, cynomolgus monkey
[12] = Hepatic metabolic stability (HMS) assay, mouse hepatocytes; details: mouse, cryopreserved hepatocytes
Procedure: 1) 10 mM test compounds were provided.
as §5, §6, §7, §8, §9, §10, §11, §12, §13, §14, §15, §16, §17, §18, §19, §20, §21

[13] = Homo sapiens, HCT-116, 6 days treatment

hERG potassium ion channel, sequence (Q12809 whole entry): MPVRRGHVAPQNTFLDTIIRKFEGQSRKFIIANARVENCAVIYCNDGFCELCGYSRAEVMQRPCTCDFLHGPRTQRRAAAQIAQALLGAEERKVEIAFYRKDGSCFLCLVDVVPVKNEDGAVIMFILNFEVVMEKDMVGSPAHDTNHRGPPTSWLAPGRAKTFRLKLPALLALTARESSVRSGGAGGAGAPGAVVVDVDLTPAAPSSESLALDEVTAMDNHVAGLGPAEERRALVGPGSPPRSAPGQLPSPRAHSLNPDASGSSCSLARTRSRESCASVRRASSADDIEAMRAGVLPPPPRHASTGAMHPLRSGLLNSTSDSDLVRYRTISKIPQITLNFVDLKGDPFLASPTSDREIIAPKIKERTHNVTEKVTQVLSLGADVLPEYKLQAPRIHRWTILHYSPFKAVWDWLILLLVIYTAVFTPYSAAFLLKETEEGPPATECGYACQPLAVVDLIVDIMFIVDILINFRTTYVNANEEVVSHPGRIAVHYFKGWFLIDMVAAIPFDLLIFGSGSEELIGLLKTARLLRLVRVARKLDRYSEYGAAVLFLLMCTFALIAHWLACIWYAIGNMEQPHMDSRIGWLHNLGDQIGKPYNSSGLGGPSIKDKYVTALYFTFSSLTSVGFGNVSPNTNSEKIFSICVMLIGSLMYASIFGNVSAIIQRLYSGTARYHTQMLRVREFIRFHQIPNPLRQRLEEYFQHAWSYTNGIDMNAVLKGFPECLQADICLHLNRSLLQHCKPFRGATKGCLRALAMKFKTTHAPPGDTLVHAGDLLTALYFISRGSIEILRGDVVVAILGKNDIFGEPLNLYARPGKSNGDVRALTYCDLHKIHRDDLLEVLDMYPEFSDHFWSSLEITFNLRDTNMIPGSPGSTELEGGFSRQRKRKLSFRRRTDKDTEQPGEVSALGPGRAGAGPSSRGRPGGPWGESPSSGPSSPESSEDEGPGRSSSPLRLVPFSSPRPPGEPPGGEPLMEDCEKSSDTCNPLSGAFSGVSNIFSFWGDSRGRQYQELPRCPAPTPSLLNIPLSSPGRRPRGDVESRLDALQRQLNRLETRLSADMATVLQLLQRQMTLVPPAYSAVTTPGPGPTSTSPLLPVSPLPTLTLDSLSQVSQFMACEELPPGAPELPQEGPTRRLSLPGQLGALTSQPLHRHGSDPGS

Compound | IC50 ([1]; 6 days treatment) [µM] | Tumor growth inhibition (TGI) HCT 116 MTAP KO [2] [%] | IC50 ([5]; 6 days treatment) [µM] | IC50 [7] [µM] | T1/2 (hepatocytes) C [8] [h] | CLint (liver) C [8] [mL/min/kg] | CLint (hep) C [8] [μL/min/10^6] | T1/2 (hepatocytes) R [9] [h] | CLint (liver) R [9] [mL/min/kg] | CLint (hep) R [9] [μL/min/10^6] | T1/2 (hepatocytes) H [10] [h] | CLint (liver) H [10] [mL/min/kg] | CLint (hep) H [10] [μL/min/10^6] | also measured
CN(C(=O)c1ccc2nc(N)c3cncn3c2c1)C1COc2cc(C(F)(F)F)ccc21 (stereo not drawn) [Compound 17] | 4.08 | −11 | 0.032 | 12.8 | – | – | – | – | – | – | – | – | – | CLint (liver) M [3]: 183.3 mL/min/kg; CLint (hep) M ([3]; mouse): 15.4 μL/min/10^6; T1/2 (hepatocytes) M ([3]; mouse): 1.5 h; CLint (liver) C [4]: 62.0 mL/min/kg; CLint (hep) C ([4]; cynomolgus monkey): 17.2 μL/min/10^6; T1/2 (hepatocytes) C ([4]; cynomolgus monkey): 1.34 h; CLint (liver) H [6]: 20.2 mL/min/kg; CLint (hep) H ([6]; human): 7.3 μL/min/10^6; T1/2 (hepatocytes) H ([6]; human): 3.18 h
CN(C(=O)c1cc2c(cn1)nc(N)c1cncn12)C1COc2cc(C(F)(F)F)ccc21 (stereo not drawn) [Compound 19] | 3.06 | 11 | 0.039 | 13.5 | 3.552 | 23.4 | 6.5 | 2.443 | 44.3 | 9.5 | >3.613 | <17.8 | <6.4 | –
CN(C(=O)c1cc2c(cn1)nc(N)c1cncn12)C1CC(F)(F)c2cc(C(F)(F)F)ccc21 (stereo not drawn) [Compound 24] | 3.93 | 3 | 0.052 | 24.8 | 2.193 | 37.9 | 10.5 | 1.797 | 60.2 | 12.9 | >3.613 | <17.8 | <6.4 | CLint (mic) C ([11]; cynomolgus monkey liver microsome): 9.9 µL/min/mg; T1/2 of LMS, C ([11]; cynomolgus monkey liver microsome 0.5 mg protein/mL, 1 μM, NADPH): 2.338 h; CLint (liver) C ([11]; cynomolgus monkey liver microsome, scaled to liver): 13.3 mL/min/kg
CN(C(=O)c1cc2c(cn1)nc(N)c1cncn12)C1COc2cc(C(F)(F)F)ccc21 (stereo not drawn) [Compound 21] | – | 11 | – | 13.6 | >3.613 | <23 | <6.4 | 2.983 | 36.2 | 7.7 | >3.613 | <17.8 | <6.4 | –
CN(C(=O)c1ccc2nc(N)c3cncn3c2c1)[C@@H]1COc2cc(C(F)(F)F)ccc21 [Compound 12] | – | – | – | 5.38 | – | – | – | – | – | – | – | – | – | IC50 [1, 13]: 5.16 µM; half-life at 1 μM [12]: 1.86 h; IC50 [5, 13]: 0.043 µM
